Measurements as given in PubChem BioAssay AID588735 (Vanderbilt Specialized Chemistry Center, 2011).

Biological target: Metabotropic glutamate receptor 5 (Rattus norvegicus) (UniProt P31424)
Experiment: PubChem AID 588735
Details: HEK293 rat mGluR5, calcium fluorescence, at 10 µM, stronger effect = higher value

Sequence of Metabotropic glutamate receptor 5 (Rattus norvegicus) (P31424 whole entry, looked up): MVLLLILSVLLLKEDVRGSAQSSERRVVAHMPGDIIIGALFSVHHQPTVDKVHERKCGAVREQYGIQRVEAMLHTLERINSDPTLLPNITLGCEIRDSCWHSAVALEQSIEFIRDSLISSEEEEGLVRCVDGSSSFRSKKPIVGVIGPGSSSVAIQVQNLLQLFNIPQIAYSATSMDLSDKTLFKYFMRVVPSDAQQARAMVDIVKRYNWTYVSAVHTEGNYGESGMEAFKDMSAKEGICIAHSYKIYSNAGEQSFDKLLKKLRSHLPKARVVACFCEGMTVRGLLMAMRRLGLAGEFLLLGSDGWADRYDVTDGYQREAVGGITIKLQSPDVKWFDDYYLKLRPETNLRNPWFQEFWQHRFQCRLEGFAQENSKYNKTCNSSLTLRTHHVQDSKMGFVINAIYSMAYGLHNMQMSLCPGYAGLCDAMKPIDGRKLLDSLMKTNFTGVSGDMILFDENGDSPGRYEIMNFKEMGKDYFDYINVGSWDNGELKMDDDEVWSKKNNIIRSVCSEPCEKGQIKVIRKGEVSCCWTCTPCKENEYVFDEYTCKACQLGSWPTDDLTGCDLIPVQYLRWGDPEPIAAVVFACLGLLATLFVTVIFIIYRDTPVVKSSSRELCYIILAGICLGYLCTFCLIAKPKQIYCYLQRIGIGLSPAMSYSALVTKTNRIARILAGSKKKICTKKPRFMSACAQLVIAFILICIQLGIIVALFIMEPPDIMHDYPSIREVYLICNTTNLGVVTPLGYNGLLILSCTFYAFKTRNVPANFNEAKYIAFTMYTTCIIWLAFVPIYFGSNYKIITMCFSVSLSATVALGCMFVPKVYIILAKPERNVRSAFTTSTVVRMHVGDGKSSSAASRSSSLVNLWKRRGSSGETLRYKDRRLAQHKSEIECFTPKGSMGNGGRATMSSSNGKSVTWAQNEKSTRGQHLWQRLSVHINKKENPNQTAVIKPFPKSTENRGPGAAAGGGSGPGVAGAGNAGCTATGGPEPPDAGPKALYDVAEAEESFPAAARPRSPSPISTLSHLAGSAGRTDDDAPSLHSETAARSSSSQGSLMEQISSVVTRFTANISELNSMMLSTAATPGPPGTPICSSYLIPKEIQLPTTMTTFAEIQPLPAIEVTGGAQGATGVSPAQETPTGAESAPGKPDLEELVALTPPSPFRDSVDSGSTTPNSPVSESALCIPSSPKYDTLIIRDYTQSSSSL

Compound `C[C@@H](NC(=O)c1ccc(C#Cc2cccc(F)c2)cn1)C(C)(C)O` has a fold shift of 4.6, an Emax (glutamate fold shift, glutamate max response with compound) of 62% and an Emin (glutamate fold shift, glutamate min response (ago-PAM)) of 45%.
